Assay: Human HepG2 cell viability assay in 384 well format
Format: toxicity, cell-based
Parameters: dose 125 nL, time 70.5 hour; cytotoxicity at 70.5 h: concentration not given beside the values
Details: HepG2 cells, read-out: Inhibition

SMILES | cytotoxicity at 70.5 h
CCn1ccnc1CN1CCCN(C(=O)Cc2ccc(C)cc2)CC1 | -1.67%
Cc1ccc(N2CCCC(NCc3ccc(Cl)o3)C2)nn1 (stereo not drawn) | -1.97%
CN(Cc1ccc(-n2ccnc2)cc1)CC1CCCN1c1cccnn1 (stereo not drawn) | 23%
Cc1nc(CN2CCN(C(=O)c3sccc3C3CC3)CC2)oc1C | 12.6%
Cc1cc(C)n(CC2CCCN2C(=O)c2nccc3ccccc23)n1 (stereo not drawn) | -0.984%
CCCn1[nH]cc/c1=N\C(=O)CN1CCc2c(nc(C3CC3)n2C)C1 | -9.16%
Cc1cnn(CC2CCCN2C(=O)c2cc3ccccc3c(=O)[nH]2)c1 (stereo not drawn) | -12.3%
CC(Cn1cccn1)NC(=O)NCc1ccc(C(N)=O)cc1 (stereo not drawn) | -15.4%
Cc1cc(CN2CCN(C(=O)c3sccc3C3CC3)CC2)no1 | -7.26%
Cc1ccc(C(=O)NC2CCN(C(=O)Nc3ccncc3)CC2)o1 | -13.5%
CCn1ccnc1CN1CCN(CC(O)c2cccc(F)c2)CC1 (stereo not drawn) | -5.97%
Cc1cnn(CC2CN(Cc3nc4ccccc4o3)CCO2)c1 (stereo not drawn) | -12.1%
Cc1cnn(CC2CN(Cc3nc(C)c4ccccc4n3)CCO2)c1 (stereo not drawn) | -7.25%
CC(C)c1nc2c(n1C)CCN(CC(=O)Nc1cccnc1)C2 | -9.65%
Cc1ccc(C(O)CN2CCN(Cc3nccn3C)CC2)cc1C (stereo not drawn) | 2%
CC(C)Oc1ccc(C(=O)N2CCC(Nc3cccnn3)CC2)cn1 | -5.88%
O=C(c1ccc(NC2CC2)nc1)N1CCC(Nc2cccnn2)CC1 | -8.71%
Cc1cnn(CC2CCCCN2C(=O)c2nccnc2N)c1 (stereo not drawn) | -4.52%
CC(C)c1nc2c(n1C)CCN(CC(=O)Nc1ccncc1)C2 | -7.84%
O=C(c1ccccc1-n1cccn1)N1CCC(Nc2cccnn2)CC1 | -8.8%

SMILES | cytotoxicity at 70.5 h
O=C(CCc1c(F)cccc1F)N1CCCCC1Cn1cccn1 (stereo not drawn) | 1.38%
O=C(CCc1ccccc1)N1CCCCC1Cn1cccn1 (stereo not drawn) | 11.8%
O=C(CCc1ccc2c(c1)OCO2)N1CCCCC1Cn1cccn1 (stereo not drawn) | -8.55%
Cc1cnn(CC2CCCN2C(=O)c2nccnc2N)c1 (stereo not drawn) | -6.62%
CCC1CCCCN1C(=O)c1ccnc(N(C)C)c1 (stereo not drawn) | -0.362%
O=C(NCCCn1ccnc1)NCC(c1ccco1)N1CCCC1 (stereo not drawn) | 5.06%
CCc1nc(C2CCCN(C(=O)c3cccc(Cl)c3)C2)no1 (stereo not drawn) | -1.41%
CCn1cc(NC(=O)NCC(C)(C)N2CCc3ccccc3C2)cn1 | 13.8%
CCN(Cc1ccccc1)Cc1nc2c(cnn2C)c(=O)[nH]1 | 17%
O=C(NCc1ccnc(-n2cccn2)c1)C1CC(=O)N(CC2CC2)C1 (stereo not drawn) | -8.83%
CN(C)c1cc(C(=O)N2CCCCC2CNS(C)(=O)=O)ccn1 (stereo not drawn) | 0.448%
O=C(NCCCn1cccn1)NCC(c1ccco1)N1CCCC1 (stereo not drawn) | -2.3%
CCC(CNC(=O)Nc1cnn(CC)c1)N1CCc2ccccc2C1 (stereo not drawn) | -4.26%
CCN(Cc1nc2c(cnn2C)c(=O)[nH]1)Cc1ccccc1Cl | 0.498%
CCN(Cc1cccc(C)c1)Cc1nc2c(cnn2C)c(=O)[nH]1 | -2.57%
CCN(Cc1cccc(F)c1)Cc1nc2c(cnn2C)c(=O)[nH]1 | 14.7%
CCN(Cc1ccc(OC)c(F)c1)Cc1nc2c(cnn2C)c(=O)[nH]1 | -1.49%
CS(=O)(=O)N1CCN(CC(O)COc2ccc(Cl)cc2)CC1 (stereo not drawn) | 0.0303%
NC(=O)Cn1cc(NC(=O)NCCN2CCc3ccccc3C2)cn1 | -5.44%
Cc1nc2c(c(C)c1CC(=O)NCc1ccc(F)cc1)c(=O)[nH]n2C | 21.3%

SMILES | cytotoxicity at 70.5 h
O=C(CCc1ccc(Cl)s1)N1CCC(N2CCNC2=O)CC1 | -3.74%
Cc1nc2c(c(C)c1CC(=O)NCc1ccco1)c(=O)[nH]n2C | -3.09%
CCc1nc(C2CCCN(C(=O)c3ccc4[nH]cnc4c3)C2)no1 (stereo not drawn) | 12.5%
CCOC1CCN(C(=O)NCCc2ccn(-c3ccccc3)n2)CC1 | -2.77%
CCc1nc(C2CCCN(C(=O)c3ccncc3)C2)no1 (stereo not drawn) | -1.21%
Cc1cnn(CC2CCCCN2C(=O)c2cccc(C(N)=O)c2)c1 (stereo not drawn) | -1.63%
Cc1cnn(CC2CCCCN2C(=O)c2ccc3[nH]c(=O)[nH]c3c2)c1 (stereo not drawn) | -0.746%
CC(=O)Nc1nc(C(=O)N2CCCC2Cn2cccn2)cs1 (stereo not drawn) | -0.875%
Cc1cnn(CC2CCCCN2C(=O)c2ccc(CN(C)C)cc2)c1 (stereo not drawn) | -8.06%
Cc1cnn(CC2CCCCN2C(=O)c2ccc(N(C)C)nc2)c1 (stereo not drawn) | 0.883%
CC(=O)Nc1nc(C(=O)N2CCCCC2Cn2cccn2)cs1 (stereo not drawn) | -0.594%
CCn1c(C)nnc1CN(C)C1CCN(CCOc2ccccc2)C1 (stereo not drawn) | 29.3%
Cc1nc(C)n(CC2CCCN(CCC(=O)NC3CCCC3)C2)n1 (stereo not drawn) | 24.8%
CC(=O)N(Cc1ncc(C)o1)C1CCN(Cc2ccon2)C1 (stereo not drawn) | 22.2%
CC(=O)N(Cc1noc(C)n1)C1CCN(Cc2ncc(C(C)C)o2)C1 (stereo not drawn) | 51.4%
Cc1cc(N2CCC(NC(=O)C3CC3)CC2)nc(-c2ccncc2)n1 | -5.8%
Cc1cc(N2CCC(CC(N)=O)CC2)nc(-c2ccncc2)n1 | -6.56%
COc1ccc(C(C)NC(=O)Cn2ccc(=O)n(C)c2=O)cc1OC (stereo not drawn) | -6.92%

— ChEMBL document CHEMBL3507680, “University of Dundee, Gates Library screen for HepG2 cell viability”
